According to PMC6372612, “Immunoglobulin G modulation of the melanocortin 4 receptor signaling in obesity and eating disorders” (Translational Psychiatry, 2019):
Entries after “also recorded” stand apart in the source; their conditions may differ. One block for each substance: values may come before it.

Legend:
[1] = cited from earlier work
Text: In fact, the role of both the N- and C-terminals of α-MSH in binding to different MCR subtypes has been shown, with the C-terminal being essential for MC4R recognition. Thus hiding of the C-terminal by IgG in OB patients appears as a negative modulator of α-MSH/IgG IC activation of MC4R. […] 12–13 of the α-MSH C-terminal have also been detected in narcolept ...

human MC4R = test: cAMP production by MC4R-expressing HEK 293 cells; type: cell-based; conditions: AgRP 100 nM, 45 min preincubation or co-administered; n = 2/group
[2] = molecular target: human melanocortin 4 receptor (human) (UniProt P32245); test: SPR; BIAcore 1000; hMC4R-expressing HEK 293 cells coated on the biosensor surface; analyte α-MSH in immune complex with IgG from obese patients; Langmuir 1:1 fit after blank subtraction
[3] = molecular target: human melanocortin 4 receptor (human) (UniProt P32245)
wild-type C57Bl/6 mice = test: Food intake in wild-type mice after IP α-MSH; type: in vivo, mouse; conditions: α-MSH 100 µg/kg IP, beginning of dark phase; vs basal food intake; n = 6
Protocol: Rag^−/− mice (n = 6), bred in a specific-pathogen-free area, were generously provided by Professor Olivier Boyer and a person, Inserm 1234, Rouen. Rag^−/− and C57Bl/6 male mice were individually housed in BioDaq® cages (Research Diets Inc., New Brunswick, NJ, USA) for 7 days, and the basal food intake of each animal was measured during the first 4 h of the dark phase. At day 8, IP injections of α-MSH (100 µg/kg, Bachem) were performed at the beginning of the dark phase. Individual food intake after injection was compared to the basal food intake of the pretreatment period.
Upon arrival into the animal facility, male C57Bl/6 mice (7 weeks – n=6) purchased from Janvier Labs and Rag^-/- mice (generated by the Inserm UMR905 laboratory in a specific-pathogen-free area, n=6) were housed in standard cages (3 mice per cage) in environmental conditions (23 ± 1 °C, 12:12 h light-dark cycle) with standard pellet rodent chow and water available ad libitum. After 7 days of acclimatization, animals were individually housed in BioDaq® cages (Research Diets Inc., New Brunswick, NJ, USA) that provide automatic food intake measurements. During 7 days, the basal food intake of each animal was measured during the first 4 hours of the dark phase. At day 8, intraperitoneal injections of a-MSH (100 µg/kg, Bachem) were performed at the beginning of the dark phase. […]

[4] = system: control HEK 293 cells lacking MC4R; test: cAMP production by control HEK 293 cells lacking MC4R; conditions: 15 min at 23 °C
male Sprague-Dawley rats = test: Food intake in rats after intra-PVN injection of α-MSH or α-MSH/IgG IC; type: in vivo, rat; conditions: intra-PVN 2 µL α-MSH 2.5 mg/mL; 12-h fasted rats; vs aCSF
Protocol: Animal care and experimentation were in accordance with guidelines established by the National Institutes of Health, French and European Community regulations (Official Journal of the European Community L 358, 18/12/1986) and the study was approved by a Regional Ethical Committee (Rouen, France). Sample sizes were selected based on previous experiments. Non-randomized male Sprague-Dawley rats were anesthetized by ketamine (75 mg/kg, Virbac, Carros, France)/xylazine (5 mg/kg, Bayer, Leverkusen, France) solution (3:1 vol., 0.1 mL/100 g, intraperitoneal (IP)) and were stereotaxically implanted with a 9-mm guide cannula (PlasticsOne, Roanoke, VA, USA) into the paraventricular nucleus (PVN). Upon awakening, rats were individually maintained in metabolic cages (Techniplast, Louviers, France) for 5–6 days. […] Food intake was measured 30 min and 2 h after injection.
Animal care and experimentation were in accordance with guidelines established by the National Institutes of Health, French and European Community regulations (Official Journal of the European Community L 358, 18/12/1986). […] Food intake was measured 30 min and 2 h after injection. […]

Sequence of human melanocortin 4 receptor (human) (P32245 whole entry): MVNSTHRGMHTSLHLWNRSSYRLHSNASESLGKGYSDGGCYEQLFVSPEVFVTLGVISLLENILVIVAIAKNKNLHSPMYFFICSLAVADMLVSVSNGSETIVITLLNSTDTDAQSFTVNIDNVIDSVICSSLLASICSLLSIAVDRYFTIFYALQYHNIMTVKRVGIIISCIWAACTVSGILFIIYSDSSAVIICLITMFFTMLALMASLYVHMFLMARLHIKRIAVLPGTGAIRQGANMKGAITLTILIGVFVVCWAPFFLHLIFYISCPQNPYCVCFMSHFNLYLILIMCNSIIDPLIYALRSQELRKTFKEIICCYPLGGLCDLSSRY

Substance: adrenocorticotropic hormone [ACTH]
functional activity when central part of ACTH is bound by IgG [1]: preserved its functional activity to stimulate cortisol secretion

Substance: agouti-related protein (SSRRCVRLHESCLGQQVPCCDPCATCYCRFFNAFCYCRKLGTAMNPCSRT; UniProt O00253 83-132, looked up) [AgRP]
antagonism of α-MSH- and α-MSH/IgG IC-induced cAMP production (human MC4R): antagonized both α-MSH- and α-MSH/IgG IC-induced cAMP production

fold lower affinity than in IC with IgG from controls [2]: 10 fold
EC50 of cAMP release by hMC4R-expressing HEK 293 cells, IC formed by α-MSH and IgG from controls and ED patients, against free α-MSH [3]: 50%
Substance: α-melanocyte-stimulating hormone (peptide)

Substance: α-melanocyte-stimulating hormone [α-MSH]
4-h food intake in wild-type mice (wild-type C57Bl/6 mice): significantly reduced food intake
cAMP production by control HEK 293 cells lacking MC4R, in words [4]: no significant α-MSH-induced cAMP production; also recorded: did not observe cAMP production
anorexigenic effect, cumulative food intake at 30 min (male Sprague-Dawley rats): significant anorexigenic effect
anorexigenic effect, cumulative food intake at 120 min (male Sprague-Dawley rats): significant anorexigenic effect
